{
  "source": "patent US10947291B2",
  "about": "“Treating type I and type II diabetes” (Mayo Foundation for Medical Education and Research, priority 2013, dated 2021)",
  "system": "female mice (C57/BL6) with streptozocin-induced hyperglycemia",
  "experiment": "AAV1.CMV.insulin.RSV.icasp9 and AP20187 in streptozocin-treated C57/BL6 mice, blood glucose",
  "type": "in vivo",
  "details": "IP 10 mg/kg, five consecutive days starting on day 14 after AAV1.CMV.insulin.RSV.icasp9 (FIG. 6)",
  "procedure": "FIG. 6 is a graph plotting glucose levels for three groups of mice. One group was treated intraperitoneally (IP) with streptozocin (STZ) for two weeks to develop hyperglycemia. A second group was treated intraperitoneally (IP) with streptozocin (STZ) for two weeks to develop hyperglycemia and then administered AAV1.CMV.insulin.RSV.icasp9 (AAV1) intramuscularly (IM) on day zero. The third group was treated intraperitoneally (IP) with streptozocin (STZ) for two weeks to develop hyperglycemia, was then administered AAV1.CMV.insulin.RSV.icasp9 (AAV1) intramuscularly (IM) on day zero followed by intraperitoneal (IP) administration of AP20187 (B/B) on days 14, 15, 16, 17, and 18.\nTo induce diabetes in mice, three groups of female mice (C57/BL6) were given, on 5 consecutive days, an intraperitoneal (IP) injection of Streptozocin (STZ; Sigma cat #50130) at 45 mg/kg body weight dissolved in 0.1 mol/L citrate buffer (pH 4.5) immediately before administration. Two weeks later, when hyperglycemia developed, two groups of mice were injected intramuscularly (IM) with 1×10E11 particles/mice of AAV1.CMV.insulin.RSV.icasp9. Blood glucose levels were determined using a Contour blood glucose test strips (Bayer HealthCare LLC). 14 days later, one group of mice was injected via IP injection with 10 mg/kg of AP20187 (B/B homodimerizer; Clontech, Cat. No. AP20187) for 5 consecutive days.",
  "data": [
    {"smiles": "CC[C@H](C(=O)N1CCCCC1C(=O)O[C@H](CCc1ccc(OC)c(OC)c1)c1cccc(OCC(=O)NCC(CNC(=O)COc2cccc([C@@H](CCc3ccc(OC)c(OC)c3)OC(=O)[C@@H]3CCCCN3C(=O)[C@@H](CC)c3cc(OC)c(OC)c(OC)c3)c2)CN(C)C)c1)c1cc(OC)c(OC)c(OC)c1", "note": "(stereo partly shown) [AP20187]", "values": [
      {"measurement": "glucose levels after induction of the iCasp9 death switch", "value": "steady increase in glucose levels"}
    ]}
  ]
}
